{
  "source": "patent US20250302909A1",
  "about": "“METHODS FOR THE TREATMENT OF AGE-RELATED MACULAR DEGENERATION” (Stealth BioTherapeutics Inc., priority 2024, published 2025)",
  "key": {"[1]": {"tested_on": "patients with at least one eye with dry AMD and GA", "test": "Example 2: macular area of photoreceptor loss (tEZa) over time, linear mixed effects model", "assay_type": "in vivo, human", "experimental": "Data for this example was collected as part of the clinical study described above in Example 1. […] The primary analysis of rate of change in the macular area of photoreceptor loss over time was conducted using a linear mixed effects model assuming time as continuous and linear. […] Correlation between the repeated measurements of the same subject were accounted for by allowing an unstructured covariance matrix for the residuals. The outcome was the change in macular area of photoreceptor loss from baseline to each time point (time points being t=0, t=12 weeks, t=24 weeks, t=36 weeks and t=48 weeks) during the treatment period through week 48."}, "[2]": {"tested_on": "patients with at least one eye with dry AMD and GA", "test": "Phase 2 trial: ellipsoid zone integrity (tEZa, pEZa) and GA on OCT", "assay_type": "in vivo, human", "text": "(§1) Study design. […] (Allingham 2022; Mettu 2022).\n(§2) Study objectives and endpoints. The primary efficacy endpoints were changes from baseline in LL BCVA and in square root converted GA area as measured by OCT. Secondary efficacy endpoints included changes in ellipsoid zone integrity, categorical changes from baseline in LL-BCVA, changes from baseline in LL reading acuity (LLRA), BCVA, and GA area as measured by FAF. Additional predefined endpoints included change in center 1-mm and 2-mm mean EZ-RPE thickness, National Eye Institute Visual Function Questionnaire (VFQ-39) score, RA at standard light, visual function by the Low-Luminance Questionnaire (LLQ). For efficacy endpoints, the unit of analysis was study eye; in cases where both eyes were eligible for analysis, the study eye was the eye with the worse LL BCVA as determined at baseline (right eye was the study eye for equal LL BCVA). Ellipsoid zone integrity was measured as previously described on OCT utilizing a machine learning enhanced multi-layer segmentation platform that provided panmacular assessment of the EZ and RPE location (Sirici, et al., Ophthamol Surg Lasers Imaging Retina, 2022; Itoh, et al, Br J Ophthamol, 2016).\nStatistical analysis. Safety and efficacy variables were summarized descriptively. […] Patients were analyzed according to the actual treatment received.\nFor continuous data, a mixed model for repeated measures was used for each eye separately (study eye), with fixed effects for treatment arm, study visit, the treatment arm-by-visit interaction, baseline as a covariate, a baseline-by-visit interaction, a random effect for subject, using an unstructured covariance structure. The primary time point for analysis was week 48 (end of treatment visit) and the mITT population was the primary analysis population using observed data. A family-wise alpha level of 0.1 was maintained for the primary endpoint family, using Hochberg's procedure at the primary time point of 48 weeks. […] Otherwise, the endpoint with the smaller p-value of the two was considered statistically significant, if statistically significant at the 0.05 (two-sided) level of significance."}, "[3]": {"tested_on": "patients with at least one eye with dry AMD and GA", "test": "Phase 2 trial (NCT03891875): low-luminance best-corrected visual acuity (LL BCVA)", "assay_type": "in vivo, human", "conditions": "week 48", "experimental": "as §1\nPatients—Key inclusion criteria. The original protocol specified that adults ≥55 years of age with one eye with dry AMD and GA were eligible for study entry. However, a subsequent amendment to the protocol limited inclusion to patients with noncentral GA. Noncentral GA and area was determined primarily by fundus autofluorescence (FAF) and all noncentral GA lesions were required to be ≥150 μm from foveal center with preserved outer retinal structural details, as confirmed by the central reading center (BIRC, Boston MA). Noncentral GA was required to be ≥0.05 mm^2 and ≤10.16 mm^2 in size, and reside completely within the FAF 30- or 35-degree image. […] The fellow eye was allowed to have AMD with or without GA, MNV, central GA, or no pathology.\nas §2\nStatistical analysis. Safety and efficacy variables were summarized descriptively. […] Patients were analyzed according to the actual treatment received. […]"}, "[4]": {"tested_on": "patients with at least one eye with dry AMD and GA", "experimental": "Study design. In this Phase 2, randomized, placebo-controlled, double-masked, multicenter, safety and efficacy trial (ClinicalTrials.gov identifier NCT03891875), patients with at least one eye with dry AMD and GA were included. Visit 1 (screening visit) was performed no more than 14 days before the baseline visit (visit 2, day 1) (FIG. 1). […] (Allingham 2022; Mettu 2022). Patients were treated for 48 weeks, with assessments at day 1 and weeks 4, 8, 12, 24, 36, and 48 (visits 2 to 8) plus a final safety follow-up visit 4 weeks after the last day of study treatment (week 52; visit 9). Patient diaries and vial counts were used and reviewed to verify compliance.\nSafety/tolerability evaluations included assessment of the incidence and severity of adverse events/adverse device effects, incidence of conversion to MNV, changes from baseline in vital sign measurements, electrocardiograms, clinical evaluations, clinical laboratory evaluations, slit lamp examination, and dilated fundus examination.\nStatistical analysis. Safety and efficacy variables were summarized descriptively. The safety population included all patients receiving ≥1 dose of investigational product. […] Patients were analyzed according to the actual treatment received. A sample size of 180 patients provides ≥80% power to detect a 5-letter (1-line) change from baseline mean difference in LL BCVA between drug and placebo, assuming a standard deviation of 11 letters, at a two-sided alpha-level of 0.10, and proves approximately 80% power to detect a 30% difference in the change from baseline in square root transformed total GA area by OCT between drug and placebo, assuming a standard deviation of 0.2 mm/year, and an average change of 0.33 mm/year, at a two-sided alpha-level of 0.1."}, "[5]": {"conditions": "general statement on formulation"}, "[6]": {"conditions": "clinical study, rate of growth of photoreceptor loss"}, "[7]": {"conditions": "Table 1, 117 randomized to elamipretide"}},
  "data": [
    {"smiles": "Cc1cc(O)cc(C)c1C[C@H](NC(=O)[C@H](N)CCCNC(=N)N)C(=O)N[C@@H](CCCCN)C(=O)N[C@@H](Cc1ccccc1)C(N)=O", "note": "(stereo in doubt) [elamipretide, H-D-Arg-2′,6′Dmt-Lys-Phe-NH2]", "values": [
      {"measurement": "mean rate of macular photoreceptor loss compared with the untreated group", "setting": "[1]; FIG. 3, MMRM, weeks 12, 24, 36 and 48", "value": "reduced mean rate of macular photoreceptor loss"},
      {"measurement": "decrease of the growth of photoreceptor loss", "setting": "[1]; FIG. 3, change in tEZa from baseline, weeks 12 to 48, 40 mg subcutaneous once daily vs untreated", "value": "about 50%"},
      {"measurement": "clinical benefit in subjects who commenced therapy before developing measurable geographic atrophy (GA)", "setting": "[1]; [6]", "value": "experienced clinical benefit"},
      {"measurement": "clinical benefit in subjects with non-central GA", "setting": "[1]; [6]", "value": "experienced clinical benefit"},
      {"measurement": "reduction in progression of pEZa relative to placebo", "setting": "[2]; LS mean change baseline to week 48", "value": 47, "unit": "%"},
      {"measurement": "reduction in progression of tEZa relative to placebo", "setting": "[2]; LS mean change baseline to week 48, macular percentage of tEZa", "value": 43, "unit": "%"},
      {"measurement": "progression of GA area relative to the baseline boundary of total EZ attenuation", "setting": "[2]; during the trial, elamipretide treated arm", "value": "GA area did not progress to the baseline boundary of total EZ attenuation"},
      {"measurement": "growth of partial EZ attenuation area during the trial", "setting": "[2]; elamipretide arm, placebo arm 35%", "value": 14, "unit": "%"},
      {"measurement": "growth of total EZ attenuation area (mm^2) during the trial", "setting": "[2]; elamipretide arm, placebo arm 52%", "value": 24, "unit": "%"},
      {"measurement": "rate of progression of the EZ-GA gap", "setting": "[2]; post-hoc analysis", "value": "slower rate of progression"},
      {"measurement": "LS mean change from baseline to week 48 for macular percentage of tEZa (EZ-RPE thickness of 0 μm)", "setting": "[2]; week 48, 40 mg subcutaneous once daily, P=0.0034 vs placebo", "value": 3.69, "unit": "%"},
      {"measurement": "LS mean change from baseline to week 48 for pEZa (EZ-RPE thickness≤20 μm)", "setting": "[2]; week 48, 40 mg subcutaneous once daily, P=0.0040 vs placebo", "value": 4.10, "unit": "%"},
      {"measurement": "least-squares (LS) mean changes from baseline in LL BCVA", "setting": "[3]; primary endpoint, 40 mg subcutaneous once daily, mITT, P=0.49 vs placebo", "value": "−3.0", "unit": "letters"},
      {"measurement": "patients experiencing a ≥2-line gain (≥10 letter) in LL BCVA", "setting": "[3]; 40 mg subcutaneous once daily, P=0.0404 vs placebo", "value": 14.6, "unit": "%"},
      {"measurement": "percentage of patients experiencing a >1-line gain", "setting": "[3]; LL BCVA, vs placebo", "value": "higher compared to placebo"},
      {"measurement": "Early discontinuation: Adverse event", "setting": "[4]; [7]", "value": "10 (8.5) n (%)"},
      {"measurement": "Early discontinuation: Withdrawal by subject", "setting": "[4]; [7]", "value": "20 (17.1) n (%)"},
      {"measurement": "Subjects leaving study early", "setting": "[4]; [7]", "value": "34 (29.1) n (%)"},
      {"measurement": "patients who discontinued the study early (percent)", "setting": "[4]; of n=117 randomized", "value": 29, "unit": "%"},
      {"measurement": "water solubility", "setting": "[5]", "value": "highly water soluble"}
    ]}
  ]
}
